PubChem BioAssay (NCI)
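Protocol summary: plate cells (96-well), add compound at 5 concentrations, incubate 48 h, interpolate endpoints linearly. The concentration for full growth arrest is given as TGI.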

How the values were obtained:
Test in all cases: NCI tumour cell line growth inhibition, 48 h
HCT-116 colon = tested on: HCT-116 colon
MDA-MB-231 breast = tested on: MDA-MB-231 breast
NCI-H226 lung = tested on: NCI-H226 lung
SF-539 CNS = tested on: SF-539 CNS
NCI/ADR-RES ovarian = tested on: NCI/ADR-RES ovarian
UO-31 renal = tested on: UO-31 renal
MOLT-4 leukemia = tested on: MOLT-4 leukemia
RXF 393 renal = tested on: RXF 393 renal
HS 578T breast = tested on: HS 578T breast
SF-268 CNS = tested on: SF-268 CNS

Structure (SMILES)	TGI (HCT-116 colon) [µM]	TGI (MDA-MB-231 breast) [µM]	TGI (NCI-H226 lung) [µM]	TGI (SF-539 CNS) [µM]	TGI (NCI/ADR-RES ovarian) [µM]	TGI (UO-31 renal) [µM]	TGI (MOLT-4 leukemia) [µM]	TGI (RXF 393 renal) [µM]	TGI (HS 578T breast) [µM]	TGI (SF-268 CNS) [µM]
COc1ccc(N[C@H](CS(=O)c2ccc(C)cc2)C(F)(F)F)cc1 (some centres not stated)	> 100	> 100	> 100	> 100	> 100	> 100	> 100	> 100		
O=C(O)CN1CCN2CCCCCCCCN(CC1)CCN(CC(=O)O)CC2	> 100	> 100	> 100	> 100	> 100	> 100	> 100		> 100	
[N-]=[N+]=C1C(=O)C2CC3CC1CC2C3 (configuration not stated)	> 100		> 100	> 100		> 100	> 100	> 100		> 100
C/C=C(\C)C(=O)OC1C2C(C)=CC(=O)C(O)C2(C)C2C3(O)OCC24C1OC(=O)C(OC(C)=O)C4C(C)C3O (configuration not stated)	0.875		0.0427		31.2	0.887	0.75	0.063		0.0887
Cc1cc(OP2(=O)NCc3ccncc3O2)ccc1Cl (configuration not stated)	> 100	> 100	> 100	> 100	> 100	> 100	> 100	> 100		
CCOC(=O)c1ccc(NCc2ccc3nc(OC)c(OC)nc3c2)cc1	> 100	> 100	> 100	> 100	> 100	> 100	> 100			> 100
Cc1cn(CC2(CO)CCC2)c(=O)[nH]c1=O	> 100	> 100	> 100	> 100	> 100	> 100	> 100	> 100	> 100	
CCCC(=O)Nc1cc(/C=C/C(=O)N2CC(CCl)c3ccc([N+](=O)[O-])cc32)n(C)c1 (configuration not stated)	> 100	> 100	> 100	> 100	> 100	> 100		> 100	> 100	> 100
Cc1cc(C)n(CN(CCCCO)Cn2nc(C)cc2C)n1	36.4	78.6		36.2	39	69.1	50.7	39	> 100	65.2
CCSC1=N/C(=C\c2ccco2)C(Nc2ccc(C)cc2)=N1	> 100	> 100	> 100		> 100	> 100	> 100		> 100	> 100
CSc1nc2nccnc2c(=O)[nH]1	> 100		> 100			> 100	> 100	> 100		> 100
CC1=C(C(=O)O)N2C(=O)[C@@H](NC(=O)C(c3ccccc3)N3CSC(=S)N(C(C)C)C3)C2SC1 (some centres not stated)	> 100			> 100		> 100	> 100			
N#CC1(C#N)C(=O)c2ccncc2C1=O	> 100	> 100	> 100	> 100	> 100	> 100		> 100	> 100	> 100
CC(C)(Oc1ccc2c(=O)cc(-c3ccc(Cl)cc3)oc2c1)C(=O)Nc1c(Cl)cccc1Cl	> 100			> 100		> 100	> 100			> 100
CC1=C(O)C(=O)C2C(=O)C1C(C)C2c1ccccc1 (configuration not stated)			> 100	> 100		> 100	> 100	> 100		> 100
O=C1C2CCCC2N1Cc1ccccc1 (configuration not stated)	> 100		> 100	> 100	> 100	28.5	> 100	> 100	> 100	> 100
CCOC(=O)c1ccc(Nc2nc3ccccc3n3cccc23)cc1	> 100	> 100		> 100	> 100	> 100	> 100	49.7	> 100	> 100
CC(C)CC(C#CCCOC(=O)c1ccccc1)OC(=O)c1ccccc1 (configuration not stated)	> 10	> 10	> 10	> 10		> 10	> 10	> 10	> 10	> 10

Structure (SMILES)	TGI (HCT-116 colon) [µM]	TGI (MDA-MB-231 breast) [µM]	TGI (NCI-H226 lung) [µM]	TGI (SF-539 CNS) [µM]	TGI (NCI/ADR-RES ovarian) [µM]	TGI (UO-31 renal) [µM]	TGI (MOLT-4 leukemia) [µM]	TGI (RXF 393 renal) [µM]	TGI (HS 578T breast) [µM]	TGI (SF-268 CNS) [µM]
COc1nc2c(c(=O)[nH]1)N=C(c1ccccc1)CC(c1ccccc1)N2 (configuration not stated)	> 100	81.6	> 100	> 100	> 100	> 100	96.9	71.7		
C[n+]1c2ccccc2n2c3ccccc3c(NCc3ccco3)c(C#N)c21	14.7	16.6	16	8.79	9.55	7.63		6.21	10.8	11.3
Cn1c2ccccc2c2c3c(c4c5ccccc5n(C)c4c21)C(=O)N(Cc1ccccc1)C3=O	> 100	> 100	> 100	> 100	> 100	> 100	> 100		> 100	
CCCNC(=O)Cn1c2c(c3ccccc31)CCCC2	> 100			> 100	> 100	89.9	> 100		68.8	> 100
O=c1c2ccccc2ncn1COCc1ccccc1	> 100		> 100	> 100	> 100	> 100	> 100	> 100		
CS(=O)(=O)c1ccc(C(=O)O[C@@H]2C(=O)N3CC[C@H]4OC(O)[C@@H]2[C@H]43)cc1 (some centres not stated)	> 100	> 100	> 100	> 100	> 100	> 100	> 100	> 100		> 100
CCOC(=O)NC(=O)c1cn(CCN(CCO)C(=O)NCCCCCCNC(=O)N(CCO)CCn2cc(C(=O)NC(=O)OCC)c(=O)[nH]c2=O)c(=O)[nH]c1=O	> 100		> 100	> 100	> 100	> 100	> 100	> 100		> 100
Cc1cn(C(CO)OC(CO)CN(O)C2C3CC4CC(C3)CC2C4)c(=O)[nH]c1=O (configuration not stated)	> 100	> 100	> 100	> 100		> 100	> 100		> 100	> 100
O=C(CSc1nc2ccc(I)cc2c(=O)n1Cc1ccccc1)NNC(=S)Nc1ccccc1	> 100		> 100		> 100		> 100	> 100	> 100	> 100
COc1c(O)cc2c(c1O)C(=O)C(Cc1ccc(O)cc1)CO2 (configuration not stated)	> 100	> 100		> 100	> 100	> 100	> 100	> 100	> 100	> 100
CC(C)(C)n1[nH]c(=O)n(C(C)(C)C)c1=O	> 100	> 100		> 100		> 100	> 100	> 100	> 100	> 100
O=C([O-])c1ccccc1Nc1ccccc1C(=O)[O-].[OH3+].[Zn+2]	> 78.2		67	> 82.9		> 63.1	99.8	42.7		40.2
Cc1ccc(C(=O)C2C=C(c3ccc(C)cc3)SC3C=CCC32)cc1 (configuration not stated)	27.8	43.8	66.1	32.2	40.8	29.6	44.9	37.7	73.8	
N/C(=C\c1ccc(/C=C(\NC(=O)c2ccccc2)c2nc3c([nH]2)C(=O)c2ccccc2C3=O)cc1)c1nc2c([nH]1)C(=O)c1ccccc1C2=O	29.5		27	30.2		17.7	29.3	26.2		30.6
CCCCCCCCCCCCCC(=O)OCC(CCS(=O)(=O)O[C@H]1CC[C@@]2(C)C(=CC[C@@H]3C2CC[C@]2(C)C(=O)CCC32)C1)OC(=O)CCCCCCCCCCCCC (some centres not stated)	> 100	> 100		> 100	> 100	> 100		> 100	> 100	> 100
CN1/C(=C\N=O)C(C)(C)N(O)C1(C)C	> 100	> 100	> 100	> 100	> 100	> 100	> 100		> 100	> 100
COC(=O)CC(C(C(=O)OCc1ccccc1)C(C)O)N1C(=O)OCC1c1ccccc1 (configuration not stated)	> 100		> 100	> 100		90.6	> 100	> 100		> 100
Cc1cc2c3c(nc2c2cc[nH]c(C)c12)CCCC3	3.35	3.17	29.6	3.72	19.5	6.91	4.32		4.41	14
